Data: ChEMBL document CHEMBL4513101, “Naegleria gruberi Pathogen Box compounds screening” (2021)
Active and inactive are the calls of the source. Rule as the data show it: active = inhibition of 80% or more and inactive = less.

Tested on: Naegleria gruberi
Experiment: microbe, parasite or virus in culture
Assay type: functional
Settings: NEG-M, CONC 10 uM
Description: Growth inhibiting activity of Naegleria gruberi in vitro

Compound	inhibition at 10 µM
O=C(NCCN1CCCC1)c1cc(NCCCCN2CCC(F)(F)CC2)nc2ccc(Cl)cc12	4.3% (not active)
CC(=O)N(CCN(C(=O)c1ccc(F)cc1)c1ccccc1)c1ccccc1	21.3% (not active)
CC(=O)Oc1ccccc1C(=O)Nc1ncc([N+](=O)[O-])s1 [NITAZOXANIDE]	62.7% (not active)
CC(C)=CCC/C(C)=C\CNCCNC1C2CC3CC(C2)CC1C3 (configuration not stated)	20.2% (not active)
O=C1N(Cc2cc3ccccc3s2)CC2CN(Cc3ccccc3)CCN12 (configuration not stated)	34.3% (not active)
O=C(Nc1ccc(N2CCNCC2)cc1)c1ccn2ncc(-c3cccc(Cl)c3)c2n1	18.8% (not active)
CC1=Nc2ccc(Cl)cc2C(O)(c2ccc(C)cc2)N1CCN1CCCCC1 (configuration not stated)	31.1% (not active)
CN(C)c1cc(NC(=O)Nc2ccccc2)c2ccccc2n1	22.3% (not active)
CC(C)(CN)c1nc(-c2ccc(Cl)c(O)c2)c(-c2ccnc(N)n2)[nH]1	6.4% (not active)
COc1cc(C(F)(F)F)nc2ccc(C)c(N)c12	2.1% (not active)
CC(C)C(C(=O)Nc1ccc(S(=O)(=O)N(C)C)cc1)c1ccc(Cl)cc1 (configuration not stated)	41% (not active)
CS(=O)(=O)N1CCC(Cn2nc(Cc3cccc4ccccc34)c3c(N)ncnc32)CC1	30.6% (not active)
c1cncc(NCc2ccc(-c3cc4ccncc4cc3OC3CCNCC3)s2)c1	19.4% (not active)
Cc1nn(C)c(C)c1NS(=O)(=O)c1c(Cl)cc(-c2ccnc(N3CCNCC3)c2)cc1Cl	58.2% (not active)
CNCCC(Oc1ccc(C(F)(F)F)cc1)c1ccccc1 (configuration not stated) [FLUOXETINE]	7.5% (not active)
CNc1snc(C)c1C(=O)NCCOc1ccc(OC)cc1	40.5% (not active)
COc1ccc(C2CC(c3cccs3)=NN2C(=O)c2ccco2)cc1OC (configuration not stated)	34.6% (not active)
COc1ccc(N(CCc2cccc(C)n2)C(C)=O)cc1	19.6% (not active)
Brc1cncc(-c2cc(NCCCn3ccnc3)nc(-c3ccccc3)n2)c1	33.8% (not active)
CCC(NC(=O)c1ccccc1NC(=O)c1ccc(C)cc1)C(=O)OC (configuration not stated)	4.8% (not active)
CCc1nc2ccc(Cl)cn2c1C(=O)NCc1ccc(N2CCC(c3ccc(OC(F)(F)F)cc3)CC2)cc1 [TELACEBEC]	42.4% (not active)

Compound	inhibition at 10 µM
Cc1cccc(-c2nc(Nc3ccncn3)c3sccc3n2)n1	34% (not active)
Cc1c[nH]c(CCNC(=O)c2cc(-c3ccc(Cl)cc3)cs2)n1	38.3% (not active)
Cc1ccc2oc(-c3cc(NC(=O)Cc4ccccc4)ccc3Cl)nc2c1	44.5% (not active)
CC(C)(C)C(=O)N(CCCCCCN1C[C@H](O)[C@@H](O)[C@H](O)[C@H]1CO)C1CCCCCC1	0.1% (not active)
O=C(NC1CCCCC1)N1CCN(Cc2ccc3c(c2)OCO3)CC1	31.3% (not active)
Cc1ccc2c(c1C)NC(=O)C21NN=C(c2ccccc2)S1 (configuration not stated)	20.7% (not active)
CCOc1ccc(-c2nc(NC(=O)CS(=O)(=O)c3ccccc3)sc2C)cc1	50.9% (not active)
CNC(=O)c1nn(C)c2c1C(C)(C)Cc1cnc(Nc3ccc(N4CCN(C)CC4)cc3)nc1-2 [MILCICLIB]	18.3% (not active)
CC(C)/N=c1\cc2n(-c3ccc(Cl)cc3)c3ccccc3nc-2cc1Nc1ccc(Cl)cc1 [CLOFAZIMINE]	67.9% (not active)
CC(C)(C)c1cnc(NC(=O)c2ccccc2O)s1	0% (not active)
Cc1cc(OCC(=O)NCc2ccccc2)c2cc(Br)ccc2n1	22.1% (not active)
Cc1cccc(C(=O)Nc2ccnc(N(C)C3CCN(CC(C)C)CC3)c2)c1	35.1% (not active)
COc1cccn2c(C(=O)N3CCCCC3)c(C(F)(F)F)nc12	17% (not active)
Cc1nnc(NC(=O)c2cn(-c3ccccc3)nc2-c2ccccc2C)o1	34.7% (not active)
CN1CCN(c2nccc3[nH]c(-c4cccc(F)c4)cc23)CC1	0% (not active)
Cn1ncc2c(N3CCOCC3)nc(NCCc3c[nH]c4ccccc34)nc21 [TDR79432]	45.9% (not active)
Cc1cc(C)cc(COc2ccc3c(C)c(CCC(=O)O)c(=O)oc3c2C)c1	40.9% (not active)
CCc1nc2ccccc2n1CC(O)COc1cc(C)ccc1Cl (configuration not stated)	25.3% (not active)
CCS(=O)(=O)N(Cc1ccco1)Cc1cc2ccc(C)cc2nc1O	0% (not active)
FC(F)(F)c1cc(NCCc2ccccc2)nc(-c2ccccn2)n1	24.6% (not active)
CCc1ccc([C@@H]2C[C@H](C(F)(F)F)n3ncc(C(=O)NCc4ccc(OC)cc4)c3N2)cc1	29% (not active)

Compound	inhibition at 10 µM
C[C@H]1c2cccc(O)c2C(=O)C2=C(O)[C@]3(O)C(=O)C(C(N)=O)=C(O)[C@@H](N(C)C)[C@@H]3[C@@H](O)[C@@H]21 [DOXYCYCLINE]	59.8% (not active)
Cc1ccc(Oc2ccc(NC(=O)CNc3ccccc3N3CCCC3=O)cc2)cc1	18.8% (not active)
CNc1cc(C)nc(C2CN(C(=O)c3n[nH]c4ccccc34)CCO2)c1 (configuration not stated)	24.2% (not active)
Cc1nn2c(O)c3c(nc2c1-c1ccc(F)cc1)CCCC3	30.1% (not active)
NC(CC(=O)c1ccc(Cl)cc1Cl)C(Cl)(Cl)Cl (configuration not stated)	11.7% (not active)
Cc1ccc(NC(=O)CC2COc3ccccc3O2)cc1Cl (configuration not stated)	79.9% (not active)
Cc1ccccc1C(=O)N1N=C(Nc2ccccc2)SC1(C)C	12.6% (not active)
O=C(NC1CC1)c1ccc(CSCc2ccccc2Cl)o1	5.6% (not active)
COC(=O)c1cccc2oc(-c3cccc(OC)c3NC(=O)c3cc(-c4ccccc4)on3)nc12	69.8% (not active)
COc1ccc2nccc(NC(=O)C3CCN(CCc4ccc(Cl)cc4)CC3)c2n1	18.8% (not active)
C[C@]1(COc2ccc(N3CCC(Oc4ccc(OC(F)(F)F)cc4)CC3)cc2)Cn2cc([N+](=O)[O-])nc2O1	94.1% (active)
c1ccc(Oc2ccc(-c3cc(C4CCOCC4)[nH]n3)cc2)cc1	34.2% (not active)
O=C1O[C@@H](COc2ccon2)CN1c1cc(F)c(C2=CCN(Cc3ccccc3)CC2)c(F)c1	4.4% (not active)
CC(C)(C)OC(=O)N1CCC(Cn2nc(-c3cnc4ccccc4c3)c3c(N)ncnc32)CC1	57.8% (not active)
C[C@]1(O)C[C@@H](c2nc(-c3ccc4ccc(-c5ccccc5)nc4c3)c3c(N)nccn32)C1 [LINSITINIB]	59.4% (not active)
Cc1cccc(Cn2ccc(NC(=O)c3ccc4c(c3)OCO4)n2)c1	59.7% (not active)
CCN(CC)CCCCCCNc1cc(OC)cc2c(C)ccnc12 [SITAMAQUINE]	40.1% (not active)
CCCCN(CCCC)c1c(C#N)cc(S(=O)(=O)Nc2ccccc2)cc1C#N	23.9% (not active)
CCN(CC)CCCN1CCN(C(=O)c2cccc(-c3noc(C(F)(F)F)n3)c2)CC1	13% (not active)
Cn1ccnc1CNCCS(=O)(=O)c1cccc(Nc2ccc(-c3cccc(F)c3)cn2)c1	26.5% (not active)
